In ChEMBL document CHEMBL3352581, “Structure-activity relationships of non-opioid [des-Arg(7)]-dynorphin A analogues for bradykinin receptors” (Bioorg Med Chem Lett, 2014):
Where a SMILES comes first, the peptide text is derived from it. [ ]: non-standard residue; d: D form. Nle = CCCC[C@H](N)C(=O)O

Columns and labels:
[1] = Displacement of [3H]DALKD from bradykinin receptor in rat brain membranes by competition assay; format: cell membranes, Membrane
[2] = Retention time of the compound by HPLC method; format: physicochemical
[3] = Displacement of [3H]DALKD from bradykinin receptor in rat brain membranes by competition assay at pH 7.4; format: cell membranes, Membrane
[4] = Displacement of [3H]DALKD from bradykinin receptor in rat brain membranes by competition assay at pH 6.8; format: cell membranes, Membrane

Row | IC50 [1] [nM] | pIC50 [1] | Retention_time [2] [min] | pIC50 [3] | pIC50 [4] | IC50 [3] [nM] | IC50 [4] [nM] | Molecule
1 | 740 | 6.13 | 10.3 | – | – | – | – | H-FLRAIRP-OH
2 | 74 | 7.13 | – | – | – | – | – | H-FLRIRRPK-OH
3 | – | – | 10.4 | 7.39 | 7.58 | – | – | H-GFLRIRPKLK-OH
4 | – | – | – | – | – | 190 | – | CC[C@H](C)[C@H](NC(=O)[C@H](CCCNC(=N)N)NC(=O)[C@H](CC(C)C)NC(=O)[C@@H](N)Cc1ccccc1)C(=O)N[C@@H](CCCNC(=N)N)C(=O)N1CCC[C@H]1C(=O)N[C@@H](CCCCN)C(=O)O
5 | – | – | 9.6 | 5.67 | 6.12 | – | – | H-FLRIR-OH
6 | 91 | 7.04 | – | – | – | – | – | CCCC[C@H](NC(=O)[C@H](CCCCN)NC(=O)[C@@H]1CCCN1C(=O)[C@H](CCCCN)NC(=O)[C@H](CCCC)NC(=O)[C@H](CCCCN)NC(=O)[C@@H](N)CCCC)C(=O)N[C@@H](CCCCN)C(=O)O (H-[Nle]K[Nle]KPK[Nle]K-OH)
7 | – | – | 8.2 | 6.21 | 6.56 | – | – | H-GFLRIR-OH
8 | – | – | 10.4 | – | 7.39 | – | – | H-GGFLRIRPKLK-OH
9 | – | – | 9.7 | 6.95 | 7.2 | – | – | H-FLRIRPKLK-OH
10 | – | – | – | 7.17 | 7.52 | 68 | 30 | H-LRIRPKLK-OH
11 | – | 6.99 | 9.2 | – | – | – | – | H-LARIRPKLK-OH
12 | – | – | 6.3 | 6.74 | 6.71 | – | – | H-LRIRPK-OH
13 | – | 6.91 | 9.2 | – | – | – | – | H-LRAIRPKLK-OH
14 | – | – | 7 | 5.03 | 5.66 | – | – | CC[C@H](C)[C@H](NC(=O)[C@H](CCCNC(=N)N)NC(=O)[C@@H](N)CC(C)C)C(=O)N[C@@H](CCCNC(=N)N)C(=O)O (H-LRIR-OH)
15 | 87 | 7.06 | – | – | – | – | – | CCCC[C@H](NC(=O)[C@H](CCCNC(=N)N)NC(=O)[C@H](CCCC)NC(=O)[C@@H](N)Cc1ccccc1)C(=O)N[C@@H](CCCNC(=N)N)C(=O)N1CCC[C@H]1C(=O)N[C@@H](CCCNC(=N)N)C(=O)O (H-F[Nle]R[Nle]RPR-OH)
16 | – | – | 9.5 | 6.88 | – | – | – | H-GFLRIRPK-OH

Row | Molecule | IC50 [1] [nM] | pIC50 [1] | Retention_time [2] [min] | pIC50 [3] | pIC50 [4] | IC50 [3] [nM] | IC50 [4] [nM]
17 | CCCC[C@H](NC(=O)[C@H](CCCNC(=N)N)NC(=O)[C@H](CC(C)C)NC(=O)[C@@H](N)Cc1ccccc1)C(=O)N[C@@H](CCCNC(=N)N)C(=O)N1CCC[C@H]1C(=O)N[C@@H](CCCCN)C(=O)O (H-FLR[Nle]RPK-OH) | 91 | 7.04 | 11.4 | – | – | – | –
18 | CCCC[C@H](NC(=O)[C@@H](N)Cc1ccccc1)C(=O)N[C@@H](CCCNC(=N)N)C(=O)N[C@H](C(=O)N[C@@H](CCCNC(=N)N)C(=O)N1CCC[C@H]1C(=O)N[C@@H](CCCCN)C(=O)O)[C@@H](C)CC | – | – | 10.5 | – | – | – | –
19 | H-FLARIRPK-OH | 260 | 6.58 | 11 | – | – | – | –
